This is an account of results in the PolyMetriX glass transition set.

`*/C=C(/*)c1ccccc1[Si](C)(C)C` (repeat unit) gave a glass transition temperature of 190.00 °C. For the compound `*/C=C/*` (repeat unit), the glass transition temperature is -4.00 °C. To `*/C=N/c1ccc(C(=O)OCCCCOCCCCOCCCCOC(=O)c2ccc(/N=C/c3ccc(*)s3)cc2)cc1` (repeat unit) belongs 25.00 °C; to `*C(=O)OCCCSCCCCSCCCOC(=O)c1ccc(N2C(=O)c3ccc(*)cc3C2=O)cc1` (repeat unit), 39.00 °C; to `*C(=O)OCCN(CCOC(=O)c1ccc2c(c1)C(=O)N(c1cccc(N3C(=O)c4ccc(*)cc4C3=O)c1)C2=O)c1ccc(/N=N/c2ccc([N+](=O)[O-])cc2)cc1` (repeat unit), 210.00 °C. Then `*C(=O)OCCOC(=O)c1ccc(C(=O)OCCOC(=O)N2CCN(*)CC2)cc1` (repeat unit), with 53.00 °C; and `*C(=O)OCCOC(=O)c1cccc(N2C(=O)c3ccc(*)cc3C2=O)c1` (repeat unit), with 220.00 °C. Consider `*C(=O)OCCOCCOCCOCCOC(=O)c1ccc(N2C(=O)c3ccc(*)cc3C2=O)cc1` (repeat unit), for which the glass transition temperature turned out to be 52.00 °C. Then `*CCCCOC(=O)O*` (repeat unit), with -27.00 °C.

As for `*CCCOC(=O)O*` (repeat unit), the glass transition temperature is -17.70 °C. To `*CCCOC(=O)c1cccc(C(=O)O*)c1` (repeat unit) belongs 36.00 °C.

With `*CCCOCCCOC(=O)c1ccc(-c2ccc(C(=O)O*)cc2)cc1` (repeat unit), the glass transition temperature was determined as 18.50 °C. To `*CCCS(=O)(=O)CCCCS(=O)(=O)CCCOC(=O)c1cccc(C(=O)O*)c1` (repeat unit) belongs 65.00 °C; to `*CCCS(=O)(=O)CCCS(=O)(=O)CCCOC(=O)c1cccc(C(=O)O*)c1` (repeat unit), 67.00 °C.

Compound `*CCCS(=O)(=O)CCCS(=O)(=O)CCCOC(=O)c1ccccc1C(=O)O*` (repeat unit) registered a glass transition temperature of 52.00 °C.

In the case of `*CCN(CCOC(=O)c1cc(OC2CCN(c3ccc(S(=O)(=O)C(F)(F)C(F)(F)C(F)(F)C(F)(F)C(F)(F)C(F)(F)C(F)(F)C(F)(F)F)cc3)CC2)cc(C(=O)O*)c1)c1ccc(S(=O)(=O)C(F)(F)C(F)(F)C(F)(F)C(F)(F)C(F)(F)C(F)(F)C(F)(F)C(F)(F)F)cc1` (repeat unit), the glass transition temperature turned out to be 99.00 °C. To `*CCOC(=O)C1=CCCCC(N2CCCC2)=C1C(=O)O*` (repeat unit) belongs 352.50 °C. `*CCOC(=O)C1C2C=CC(C2)C1C(=O)O*` (repeat unit) came in with a glass transition temperature of 0.00 °C.

Consider `*CCOC(=O)C1CCC(C(=O)O*)CC1` (repeat unit), for which the glass transition temperature is 25.00 °C. Consider `*CCOC(=O)C1CCC(C(=O)OCCOc2ccc(C3(c4ccc(O*)cc4)c4ccccc4-c4ccccc43)cc2)CC1` (repeat unit), for which the glass transition temperature was determined as 120.1 °C. Take `*CCOC(=O)c1ccc(-c2ccc(C(=O)O*)cc2)cc1` (repeat unit): the glass transition temperature was 40.00 °C. With `*CCOC(=O)c1cccc2c(C(=O)O*)cccc12` (repeat unit), the glass transition temperature was determined as 78.00 °C. Then `*CCOCCOC(=O)C(=O)O*` (repeat unit), with -28.00 °C; and `*CCOCCOC(=O)C1CCC(C(=O)O*)CC1` (repeat unit), with -12.00 °C. Compound `*CCOCCOC(=O)c1ccc(C(=O)O*)cc1` (repeat unit) displayed a glass transition temperature of 21.90 °C. To `*CCOCCOC(=O)c1ccc(N/C=N/c2ccc(C(=O)O*)cc2)cc1` (repeat unit) belongs 77.00 °C; to `*CCOCCOC(=O)c1cccc(C(=O)O*)c1` (repeat unit), 16.00 °C.

Take `*CCOCCOCCOc1ccc(/C=C/c2ccc(/C=C/c3ccc(O*)c4ccccc34)cc2)c2ccccc12` (repeat unit): the glass transition temperature was determined as 83.50 °C.

In the case of `*CCOc1ccc(S(=O)(=O)c2ccc(OCCOP(=O)(O*)Oc3ccc(OC)cc3)cc2)cc1` (repeat unit), the glass transition temperature was found to be 52.00 °C. For `*OC(=O)OCCOCCOC(=O)OC1COC2C(*)COC12` (repeat unit), the glass transition temperature turned out to be 46.50 °C. `*OCCOC(=O)CCCC(=O)OCCOc1nc(-c2ccc(OCCCC)cc2)nc(*)c1-c1ccc(OCCCC)cc1` (repeat unit) displayed a glass transition temperature of 37.00 °C. Then `*O[Si](*)(C([2H])([2H])[2H])C([2H])([2H])[2H]` (repeat unit), with -125.00 °C. Turning to `*O[Si](*)(C)CCC(F)(F)C(F)(F)C(F)(F)C(F)(F)F` (repeat unit), the glass transition temperature is -75.00 °C. Turning to `*O[Si](*)(C)CCCC(=O)O` (repeat unit), the glass transition temperature was -29.00 °C. To `*O[Si](*)(C)CCCCC` (repeat unit) belongs -112.00 °C; to `*O[Si](*)(C)CCCCC(=O)OCCCCCCCCCCC(F)(F)C(F)(F)C(F)(F)C(F)(F)C(F)(F)C(F)(F)C(F)(F)C(F)(F)F` (repeat unit), -78.00 °C; to `*O[Si](*)(C)CCCCCC` (repeat unit), -110.8 °C. Compound `*O[Si](*)(C)CCCCCCCCCCC(=O)OCCC(F)(F)C(F)(F)C(F)(F)C(F)(F)C(F)(F)C(F)(F)F` (repeat unit) yielded a glass transition temperature of -69.00 °C. To `*O[Si](C)(C)O[Si](*)(C)CCCCCCCCOc1ccc(C(=O)Oc2ccc(C#N)cc2C)cc1` (repeat unit) belongs -15.00 °C; to `*O[Si](C)(C)O[Si](C)(C)O[Si](*)(C)c1c(F)c(F)c(F)c(F)c1F` (repeat unit), -83.00 °C; to `*O[Si](C)(C)O[Si](C)(C)O[Si](C)(C)O[Si](C)(C)c1ccc(Oc2ccc([Si](*)(C)C)cc2)cc1` (repeat unit), -52.00 °C.

In turn, `*O[Si](C)(C)O[Si](C)(C)O[Si](C)(C)O[Si](C)(C)c1cccc([Si](*)(C)C)c1` (repeat unit) yielded a glass transition temperature of -75.00 °C. Then `*O[Si](C)(C)[Si](*)(C)C` (repeat unit), with -119.00 °C; and `*O[Si](C)(C)c1ccc([Si](*)(C)C)cc1` (repeat unit), with -18.00 °C; and `*O[Si](C)(C)c1ccc([Si](C)(C)O[SiH](*)C)cc1` (repeat unit), with -65.00 °C. To `*O[Si](C)(C)c1ccc2ccc([Si](*)(C)C)cc2c1` (repeat unit) belongs 26.00 °C; to `*O[Si](C)(C)c1cccc(C(F)(F)C(F)(F)c2cccc([Si](*)(C)C)c2)c1` (repeat unit), -2.00 °C. Consider `*O[Si](C)(C)c1cccc2c([Si](*)(C)C)cccc12` (repeat unit), for which the glass transition temperature stood at 62.00 °C.

`*O[Si](C)(C)c1cccc2c1ccc1c([Si](*)(C)C)cccc12` (repeat unit) yielded a glass transition temperature of 100.00 °C. Then `*O[Si](C)(C=C)O[Si](C)(C)c1ccc([Si](*)(C)C)cc1` (repeat unit), with -63.00 °C; and `*O[Si](C)(C=C)O[Si](C)(C=C)O[Si](C)(C)c1ccc([Si](*)(C)C)cc1` (repeat unit), with -86.00 °C; and `*O[Si](C)(CCC(F)(F)C(F)(F)C(F)(F)C(F)(F)C(F)(F)C(F)(F)F)O[Si](C)(C)c1ccc([Si](*)(C)C)cc1` (repeat unit), with -55.00 °C. Compound `*O[Si](C=C)(C=C)O[Si](C)(C)c1ccc([Si](*)(C)C)cc1` (repeat unit) yielded a glass transition temperature of -71.00 °C. With `*Oc1ccc(C(=O)OCCCOC(=O)c2ccc(*)cc2)cc1` (repeat unit), the glass transition temperature is 57.00 °C. Then `*Oc1ccc(C(=O)OCCOC(=O)c2ccc(*)cc2)cc1` (repeat unit), with 74.00 °C. Then `*Oc1ccc(C(=O)OCCOCCOCCOCCOC(=O)c2ccc(OC(=O)c3ccc(C(*)=O)cc3)cc2)cc1` (repeat unit), with 30.00 °C; and `*Oc1ccc(C(=O)c2ccc(Oc3ccc(C(=O)c4ccc(Oc5ccc(Cc6ccc(*)cc6)cc5)cc4)cc3)cc2)cc1` (repeat unit), with 128.00 °C.

In turn, `*Oc1ccc(C(=O)c2ccc(Oc3ccc(C(=O)c4cccc(C(=O)c5ccc(*)cc5)c4)cc3)cc2)cc1` (repeat unit) came in with a glass transition temperature of 152.00 °C.

`*Oc1ccc(C(c2ccc(Oc3ccc(C(=O)c4cc(C(=O)c5ccc(*)cc5)cc(C(C)(C)C)c4)cc3)cc2)(C(F)(F)F)C(F)(F)F)cc1` (repeat unit) gave a glass transition temperature of 181.00 °C. To `*c1ccc(-c2ccc(-n3c(-c4ccc(Oc5ccc(C(=O)c6ccc(Oc7ccc(-c8nc9ccccc9n8*)cc7)cc6)cc5)cc4)nc4ccccc43)cc2)cc1` (repeat unit) belongs 268.00 °C. Take `*c1ccc(Oc2ccc(C(=O)c3ccc(Oc4ccc(-c5nc(-c6ccccn6)nnc5*)cc4)cc3)cc2)cc1` (repeat unit): the glass transition temperature was 223.00 °C. Then `*c1ccc(Oc2ccc(C(=O)c3ccc(Oc4ccc(-c5nnc(*)c6c(-c7ccccc7)c(-c7ccc8ccccc8c7)c(-c7ccc8ccccc8c7)c(-c7ccccc7)c56)cc4)cc3)cc2)cc1` (repeat unit), with 312.00 °C; and `*c1ccc(Oc2ccc(C(=O)c3ccc(Oc4ccc(C(=O)c5ccc(Oc6ccc(-c7nc8ccccc8n7-c7ccc(-n8c(*)nc9ccccc98)cc7)cc6)cc5)cc4)cc3)cc2)cc1` (repeat unit), with 223.00 °C; and `*c1ccc(Oc2cccc(N3C(=O)c4ccc([Si](C)(C)O[Si](C)(C)c5ccc6c(c5)C(=O)N(c5cccc(Oc7ccc(-c8nnc(*)o8)cc7)c5)C6=O)cc4C3=O)c2)cc1` (repeat unit), with 165.00 °C.

`*c1cccc(Cc2cccc(N3C(=O)c4ccc([Si](C)(C)O[Si](C)(C)c5ccc6c(c5)C(=O)N(*)C6=O)cc4C3=O)c2)c1` (repeat unit) gave a glass transition temperature of 217.00 °C.
